For 15 compounds, IC50 results are on record in BindingDB's records for doi:10.1021/jm970470c (Warner-Lambert, 1997).

A word on the IC50: it is the concentration that gives 50% inhibition. A higher IC50 goes with lower potency.

This experiment in a line: Concentration required to inhibit 50% of the cultured colonies of H-Ras-Fcells.

`O=C(CN(Cc1ccc(OCc2ccccc2)cc1)C(=O)[C@H](Cc1cnc[nH]1)NC(=O)OCc1ccccc1)NCC1(c2ccccc2)CCC1` [[(S)-1-((4-Benzyloxy-benzyl)-{[(1-phenyl-cyclobutylmethyl)-carbamoyl]-methyl}-carbamoyl)-2-(3H-imidazol-4-yl)-ethyl]-carbamic acid benzyl ester] showed an IC50 of 0.088 µM.
To `O=C(CN(Cc1ccc(OCc2ccccc2)cc1)C(=O)[C@H](Cc1cnc[nH]1)NC(=O)OCc1ccccc1)NCC1(c2ccccc2)CCCC1` [[(S)-1-((4-Benzyloxy-benzyl)-{[(1-phenyl-cyclopentylmethyl)-carbamoyl]-methyl}-carbamoyl)-2-(3H-imidazol-4-yl)-ethyl]-carbamic acid benzyl ester] belongs 0.33 µM; to `O=C(CN(Cc1ccc(OCc2ccccc2)cc1)C(=O)[C@H](Cc1cnc[nH]1)NC(=O)OCc1ccccc1)NCC1(c2ccccc2)CC1` [[(S)-1-((4-Benzyloxy-benzyl)-{[(1-phenyl-cyclopropylmethyl)-carbamoyl]-methyl}-carbamoyl)-2-(3H-imidazol-4-yl)-ethyl]-carbamic acid benzyl ester], 0.18 µM.
To `O=C(CN(Cc1ccc(OCc2ccccc2)cc1)C(=O)[C@H](Cc1cnc[nH]1)NC(=O)OCc1ccccc1)NCCc1ccccc1` [[(S)-1-[(4-Benzyloxy-benzyl)-(phenethylcarbamoyl-methyl)-carbamoyl]-2-(1H-imidazol-4-yl)-ethyl]-carbamic acid benzyl ester] belongs 4.3 µM; to `O=C(CN(Cc1ccc(OCc2ccccc2)cc1)C(=O)[C@H](Cc1cnc[nH]1)NC(=O)OCc1ccccc1)NCCOCc1ccccc1` [[(S)-1-{(4-Benzyloxy-benzyl)-[(2-benzyloxy-ethylcarbamoyl)-methyl]-carbamoyl}-2-(1H-imidazol-4-yl)-ethyl]-carbamic acid benzyl ester], 14.3 µM.
To `N#CC(CNC(=O)CN(Cc1ccc(OCc2ccccc2)cc1)C(=O)[C@H](Cc1cnc[nH]1)NC(=O)OCc1ccccc1)c1ccccc1` (stereo partly drawn) [[(S)-1-{(4-Benzyloxy-benzyl)-[(2-cyano-2-phenyl-ethylcarbamoyl)-methyl]-carbamoyl}-2-(3H-imidazol-4-yl)-ethyl]-carbamic acid benzyl ester] belongs 0.19 µM.
The compound `CCC(CC)(CNC(=O)CN(Cc1ccc(OCc2ccccc2)cc1)C(=O)[C@H](Cc1cnc[nH]1)NC(=O)OCc1ccccc1)c1ccccc1` [[(S)-1-{(4-Benzyloxy-benzyl)-[(2-ethyl-2-phenyl-butylcarbamoyl)-methyl]-carbamoyl}-2-(3H-imidazol-4-yl)-ethyl]-carbamic acid benzyl ester] displayed an IC50 of more than 1 µM.
With `CC(C)(CNC(=O)CN(Cc1ccc(OCc2ccccc2)cc1)C(=O)[C@H](Cc1cnc[nH]1)NC(=O)OCc1ccccc1)c1ccccc1` [[(S)-1-{(4-Benzyloxy-benzyl)-[(2-methyl-2-phenyl-propylcarbamoyl)-methyl]-carbamoyl}-2-(3H-imidazol-4-yl)-ethyl]-carbamic acid benzyl ester], the IC50 is 0.18 µM. This lies in the sub-micromolar range.
As for `CCC(CNC(=O)CN(Cc1ccc(OCc2ccccc2)cc1)C(=O)[C@H](Cc1cnc[nH]1)NC(=O)OCc1ccccc1)c1ccccc1` (stereo partly drawn) [[(S)-1-{(4-Benzyloxy-benzyl)-[(2-phenyl-butylcarbamoyl)-methyl]-carbamoyl}-2-(3H-imidazol-4-yl)-ethyl]-carbamic acid benzyl ester], the IC50 was found to be 0.4 µM.
To `CCCC(CNC(=O)CN(Cc1ccc(OCc2ccccc2)cc1)C(=O)[C@H](Cc1cnc[nH]1)NC(=O)OCc1ccccc1)c1ccccc1` (stereo partly drawn) [[(S)-1-{(4-Benzyloxy-benzyl)-[(2-phenyl-pentylcarbamoyl)-methyl]-carbamoyl}-2-(3H-imidazol-4-yl)-ethyl]-carbamic acid benzyl ester] belongs more than 1 µM.
`CC(CNC(=O)CN(Cc1ccc(OCc2ccccc2)cc1)C(=O)[C@H](Cc1cnc[nH]1)NC(=O)OCc1ccccc1)c1ccccc1` (stereo partly drawn) [[(S)-1-{(4-Benzyloxy-benzyl)-[(2-phenyl-propylcarbamoyl)-methyl]-carbamoyl}-2-(3H-imidazol-4-yl)-ethyl]-carbamic acid benzyl ester] returned a half-maximal inhibitory concentration (IC50) of 0.31 µM. That is a sub-micromolar value.
To `C[C@H](Cc1ccccc1)NC(=O)CN(Cc1ccc(OCc2ccccc2)cc1)C(=O)[C@H](Cc1cnc[nH]1)NC(=O)OCc1ccccc1` [[(S)-1-{(4-Benzyloxy-benzyl)-[((R)-1-methyl-2-phenyl-ethylcarbamoyl)-methyl]-carbamoyl}-2-(3H-imidazol-4-yl)-ethyl]-carbamic acid benzyl ester] belongs 0.71 µM; to `C[C@@H](CNC(=O)CN(Cc1ccc(OCc2ccccc2)cc1)C(=O)[C@H](Cc1cnc[nH]1)NC(=O)OCc1ccccc1)c1ccccc1` [[(S)-1-{(4-Benzyloxy-benzyl)-[((R)-2-phenyl-propylcarbamoyl)-methyl]-carbamoyl}-2-(3H-imidazol-4-yl)-ethyl]-carbamic acid benzyl ester], 0.57 µM.
To `C[C@@H](Cc1ccccc1)NC(=O)CN(Cc1ccc(OCc2ccccc2)cc1)C(=O)[C@H](Cc1cnc[nH]1)NC(=O)OCc1ccccc1` [[(S)-1-{(4-Benzyloxy-benzyl)-[((S)-1-methyl-2-phenyl-ethylcarbamoyl)-methyl]-carbamoyl}-2-(3H-imidazol-4-yl)-ethyl]-carbamic acid benzyl ester] belongs 6.3 µM.
Under `C[C@H](CNC(=O)CN(Cc1ccc(OCc2ccccc2)cc1)C(=O)[C@H](Cc1cnc[nH]1)NC(=O)OCc1ccccc1)c1ccccc1` [[(S)-1-{(4-Benzyloxy-benzyl)-[((S)-2-phenyl-propylcarbamoyl)-methyl]-carbamoyl}-2-(3H-imidazol-4-yl)-ethyl]-carbamic acid benzyl ester] stands 0.3 µM.
